Patent publication US12338203B2 (TAISHO PHARMACEUTICAL CO., LTD., priority 2019, dated 2025)

Target: T1, human LPAR1 (Homo sapiens, UniProt Q92633)
T1 construct: expressed in transfected cells
Experiment: Test Example 1: antagonism against response of LPA-induced increase in intracellular Ca2+ concentration in RH7777 cells stably expressing human LPAR1
Type: cell-based
Conditions: RH7777 cells stably expressing human LPAR1; Fluo-4 fluorescence, FDSS6000; read-out: IC50 value (concentration producing 50% antagonism against response of LPA-induced increase in intracellular Ca2+ concentration) (converted)
Procedure, shortened: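 RH7777 cells stably transfected with human LPAR1 were preincubated with test compound 30 min at 37 °C in HBSS/20 mM HEPES/probenecid/0.05% BSA buffer, pH 7.4, then LPA-stimulated.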

T1 sequence (Q92633 whole entry): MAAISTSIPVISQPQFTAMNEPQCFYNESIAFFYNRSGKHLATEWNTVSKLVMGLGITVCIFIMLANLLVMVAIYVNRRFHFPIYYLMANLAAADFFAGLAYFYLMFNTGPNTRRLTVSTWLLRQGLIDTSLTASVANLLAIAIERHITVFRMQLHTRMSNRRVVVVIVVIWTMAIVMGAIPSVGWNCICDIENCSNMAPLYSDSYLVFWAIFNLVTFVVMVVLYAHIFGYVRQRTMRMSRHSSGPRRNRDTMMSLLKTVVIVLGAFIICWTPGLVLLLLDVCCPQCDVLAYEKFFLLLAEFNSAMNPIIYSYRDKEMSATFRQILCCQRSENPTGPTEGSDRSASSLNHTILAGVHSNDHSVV

Structure (SMILES)	IC50 [nM]
CCOc1cc([C@@H](C)N(CCCCc2ccccc2)C(=O)NC2(C(=O)O)CCOCC2)cc(OCC)c1C1(O)CC1 [Example 1-153]	173
CCOc1c(C(C)=O)ccc([C@@H](C)N(CCCC(F)(F)c2ccccc2)C(=O)NC2(C(=O)O)CC(F)(F)C2)c1C [Example 4-60]	2.9
CCOc1cc([C@@H](C)N(CCO[C@@H](C)c2ccccc2)C(=O)NC2(C(=O)O)CC(OC)C2)cc(OCC)c1C(C)O (stereo partly shown) [Example 4-126]	3.91
CCOc1cc([C@@H](C)N(CCCC(F)(F)c2ccccc2)C(=O)NC2(C(=O)O)CCOCC2)cc(OCC)c1C(C)O (stereo partly shown) [Example 4-76]	10.7
CCOc1cc([C@@H](C)N(CCCCc2ccccc2)C(=O)NC2CC(C(=O)O)N(C(C)=O)C2)cc(OCC)c1C(C)=O (stereo partly shown) [Example 1-164]	38.4
CCOc1cc([C@@H](C)N(CCOCc2ccccc2)C(=O)NC2(C(=O)O)CC(OCC)C2)cc(OCC)c1C(C)=O (stereo partly shown) [Example 4-109]	1.59
CCOc1c(C(C)=O)ccc([C@@H](C)N(CCO[C@H](C)c2ccccc2)C(=O)NC2(C(=O)O)CC(F)(F)C2)c1C [Example 4-151]	2.62
CCOc1c(C)ccc([C@@H](C)N(CCOC(C)c2ccccc2)C(=O)NC2(C(=O)O)CC(F)(F)C2)c1C (stereo partly shown) [Example 4-168]	6.29
CCOc1cc([C@@H](C)N(CCCCC(C)C)C(=O)NC2(C(=O)O)CC(F)(F)C2)cc(OCC)c1C [Example 4-2]	8.34
CCOc1cc([C@@H](C)N(CCCCc2ccccc2)C(=O)NC2(C(=O)O)CCCC2)cc(OCC)c1C [Example 1-113]	4.09
CCOc1cc(C(C)N(CCCCc2ccccc2)C(=O)NC2(C(=O)O)CC(F)(F)C2)cc(COC)c1C (stereo not shown) [Example 1-74]	7.15
CCOc1cc([C@@H](C)N(CCCc2ccncc2)C(=O)NC2(C(=O)O)CC(F)(F)C2)cc(COC)c1C [Example 4-30]	178
CCOc1cc(C(C)N(CCCCc2ccccc2)C(=O)NC2(C(=O)O)CC(F)(F)C2)cc(OCC)c1Br (stereo not shown) [Example 1-42]	4.02
CCOc1cc([C@@H](C)N(CCO[C@@H](C)c2ccccc2)C(=O)NC2(C(=O)O)CC(OC)C2)cc(OCC)c1C(C)O (stereo partly shown) [Example 4-124]	5.44
COc1cc(CN(CCCCc2ccccc2)C(=O)NC(CC(F)(F)F)C(=O)O)cc(OC)c1C (stereo not shown) [Example 1-6]	1580
CCOc1cc([C@@H](C)N(CCC(F)(F)Cc2ccccc2)C(=O)NC2(C(=O)O)CC(F)(F)C2)cc(OCC)c1C(C)O (single isomer, unassigned) [Example 4-86]	2.75
CCOc1cc(C(C)N(CCCCc2ccccc2)C(=O)NC2(CC(=O)O)Cc3ccccc3C2)cc(OCC)c1C (stereo not shown) [Example 1-147]	40.6
CCOc1cc(C(CO)N(CCCCc2ccccc2)C(=O)NC2(C(=O)O)CC(F)(F)C2)cc(OCC)c1C(C)=O (stereo not shown) [Example 3-4, 1-({[1-(4-Acetyl-3,5-Diethoxyphenyl)-2-Hydroxyethyl](4-Phenylbutyl) Carbamoyl}Amino)-3,3-Difluorocyclobutane-1-Carboxylic Acid]	4.03
CCOc1cc([C@@H](C)N(CCC(F)(F)Cc2ccccc2)C(=O)NC2(C(=O)O)CC(OC)C2)cc(OCC)c1C(C)=O (stereo partly shown) [Example 4-90]	10.1
CCOc1cc([C@@H](C)N(CCCCc2ccccc2)C(=O)NC2(C(=O)O)CC(OC)C2)cc(OCC)c1C(C)O (single isomer, unassigned) [Example 1-89]	2.21
CCOc1cc([C@@H](C)N(CCC(F)(F)Cc2ccccc2)C(=O)NC2(C(=O)O)CC(F)(F)C2)cc(OCC)c1C1CC1 [Example 4-87]	2.53
CCOc1cc([C@@H](C)N(CCCc2ccccc2F)C(=O)NC2(C(=O)O)CC(F)(F)C2)cc(OCC)c1C [Example 4-4, 1-({[(1R)-1-(3,5-Diethoxy-4-Methylphenyl)Ethyl][3-(2-Fluorophenyl) Propyl]Carbamoyl}Amino)-3,3-Difluorocyclobutane-1-Carboxylic Acid]	9.64
CCOc1cc([C@@H](C)N(CCCCc2ccccc2)C(=O)NC2CCC(C(=O)O)C2)cc(OCC)c1C(C)=O (stereo partly shown) [Example 1-140]	65.9
CCOc1c(C(C)=O)ccc([C@@H](C)N(CCOCc2ccccc2)C(=O)NC2(C(=O)O)CC(F)(F)C2)c1C [Example 4-106]	1.04
CCOc1cc([C@@H](C)N(CC(=O)NCc2ccccc2)C(=O)NC2(C(=O)O)CC(F)(F)C2)cc(OCC)c1C [Example 4-163]	384
CCOc1cc([C@@H](C)N(CCC(F)(F)Cc2ccccc2)C(=O)NC2(C(=O)O)CC(OCC)C2)cc(OCC)c1C(C)=O (stereo partly shown) [Example 4-92]	7.79

Now from value to compound:

IC50 [nM]	Structure (SMILES)
1.46	COc1cc(C(C)N(CCOCc2ccccc2)C(=O)NC2(C(=O)O)CC(OC)C2)c(Cl)c(OC)c1C1CC1 (stereo not shown) [Example 5-161]
2.51	CCOc1cc([C@@H](C)N(CCO[C@@H](C)c2ccccc2)C(=O)NC2(C(=O)O)CC(OC)C2)c(C)c(OCC)c1C(C)=O (stereo partly shown) [Example 5-71]
2.85	CCOc1cc(C(C)N(CCOCc2ccccc2)C(=O)NC2(c3nn[nH]n3)CC2)cc(OCC)c1C(C)=O (stereo not shown) [Example 10-5]
3.37	COc1cc(C(C)N(CCO[C@@H](C)c2ccccc2)C(=O)NC2(C(=O)O)CC(F)(F)C2)c(C)c(OC)c1C1CC1 (stereo partly shown) [Example 5-150]
17.1	CC(c1cc(Cl)cc(Cl)c1)N(CCCCc1ccccc1)C(=O)NC1(C(=O)O)CC(F)(F)C1 (stereo not shown) [Example 5-21]
38.4	CCOc1cc(C(C)N(CCCCc2ccccc2)C(=O)NC2(c3nn[nH]n3)CCCC2)cc(OCC)c1C (stereo not shown) [Example 10-18]
7.08	CCOc1cc([C@@H](C)N(CCCCc2ccccc2)C(=O)NC2(c3nn[nH]n3)CC(F)(F)C2)c(Cl)c(OCC)c1C(C)O (stereo partly shown) [Example 10-10]
1.86	CCOc1cc([C@@H](C)N(CCO[C@@H](C)c2ccccc2)C(=O)N[C@]2(C(=O)O)C[C@@H](OCC)C2)c(C)c(OCC)c1C(C)=O [Example 5-118, Trans-1-[([(1R)-1-(4-Acetyl-3,5-Diethoxy-2-Methylphenyl)Ethyl]{2-[(1S)-1-Phenylethoxy]Ethyl}Carbamoyl)Amino]-3-Ethoxycyclobutane-1-Carboxylic Acid]
3.84	CCOc1cc([C@@H](C)N(CCO[C@@H](C)c2ccccc2)C(=O)N[C@]2(C(=O)O)C[C@H](OCC)C2)c(Cl)c(OCC)c1C(C)=O [Example 5-27]
88.3	CCOc1cc(C(C)N(CCCCc2ccccc2)C(=O)NC2(C(=O)NS(C)(=O)=O)CCCC2)cc(OCC)c1C (stereo not shown) [Example 7-3]
10.8	COc1cc(C(C)N(CCO[C@@H](C)c2ccccc2)C(=O)NC2(C(=O)O)CCC2)c(C)c(OC)c1C (stereo partly shown) [Example 5-140]
3.42	CCOc1cc([C@@H](C)N(CCCCc2ccccc2)C(=O)NC2(C(=O)NS(N)(=O)=O)CC(F)(F)C2)cc(OCC)c1C(C)=O [Example 7-4, 1-({[(1R)-1-(4-Acetyl-3,5-Diethoxyphenyl)Ethyl](4-Phenylbutyl) Carbamoyl}Amino)-3,3-Difluoro-N-Sulfamoylcyclobutane-1-Carboxamide]
1.93	CCOc1cc([C@@H](C)N(CCOCc2ccccc2)C(=O)N[C@]2(C(=O)O)C[C@H](OC)C2)c(C)c(OCC)c1C(C)=O [Example 5-74]
11	CCOc1cc(C(C)N(CCCCc2ccccc2)C(=O)NC2(C(=O)O)CC(F)(F)C2)cc(OCC)n1 (stereo not shown) [Example 5-86]
0.47	CCOc1cc(C(C)N(CCOCc2ccccc2)C(=O)NC2(C(=O)O)CCC2)c(C)c(OCC)c1C1CC1 (stereo not shown) [Example 5-192]
5.6	CCOc1cc(C(C)N(CCCCc2ccccc2)C(=O)NC2(C(=O)O)CC(F)(F)C2)cc2c1cnn2CC (stereo not shown) [Example 5-99, 1-({[1-(4-Ethoxy-1-Ethyl-1H-Indazol-6-Yl)Ethyl](4-Phenylbutyl) Carbamoyl}Amino)-3,3-Difluorocyclobutane-1-Carboxylic Acid]
0.961	COc1cc(C(C)N(CCOCc2ccccc2)C(=O)NC2(C(=O)O)CC(OC)C2)c(Cl)c(OC)c1C1CC1 (stereo not shown) [Example 5-153]
16.7	CCOc1cc(C(C)N(CCOC(C)c2ccccc2)C(=O)N[C@]2(c3nn[nH]n3)C[C@@H](OC)C2)cc(OCC)c1C(C)O (stereo partly shown) [Example 10-17]
38.4	COc1cc(C(C)N(CCOCc2ccccc2)C(=O)NC2(C(=O)O)CC2)c(Cl)c(OC)c1C1CC1 (stereo not shown) [Example 5-129]
30	COc1cc(C(C)N(CCOCc2ccccc2)C(=O)NC2(C(=O)O)CCOCC2)c(Cl)c(OC)c1C(C)=O (stereo not shown) [Example 5-174]
2.56	CCOc1cc([C@@H](C)N(CCCCc2ccccc2)C(=O)NC2(C(=O)O)CCOCC2)c(Cl)c(OCC)c1C(C)=O [Example 5-51]
443	CCOc1cc(C(C)N(CCO[C@@H](C)c2ccccc2)C(=O)NC2(C(=O)OC)CC(F)(F)C2)c(Cl)c(OCC)c1C(C)=O (stereo partly shown) [Example 6-7]
19.1	COCc1cc(OC)cc(C(C)N(CCCCc2ccccc2)C(=O)NC2(C(=O)O)CC(F)(F)C2)c1 (stereo not shown) [Example 5-14]
7.22	CCOc1cc(C(C)N(CCCCc2ccccc2)C(=O)NC2(C(=O)O)CC(F)(F)C2)c2ccn(CC)c2c1 (stereo not shown) [Example 5-95]
1.11	COc1cc(C(C)N(CCOCc2ccccc2)C(=O)NC2(C(=O)O)CC(F)(F)C2)c(Cl)c(OC)c1C1CC1 (stereo not shown) [Example 5-144]
1.98	CCOc1cc(C(C)N(CCOCc2ccccc2)C(=O)NC2(C(=O)O)CC(OCC)C2)c(Cl)c(OCC)c1C(C)=O (stereo not shown) [Example 5-212]
2.04	CCOc1cc([C@@H](C)N(CCO[C@@H](C)c2ccccc2)C(=O)NC2(C(=O)O)CC(F)(F)C2)c(Cl)c(OCC)c1C(C)=O [Example 5-32]
3.22	CCOc1cc([C@@H](C)N(CCO[C@@H](C)c2ccccc2)C(=O)NC2(c3nn[nH]n3)CC2)cc(OCC)c1C(C)=O [Example 10-1, N-[(1R)-1-(4-Acetyl-3,5-Diethoxyphenyl)Ethyl]-N-{2-[(1S)-1-Phenylethoxy]Ethyl}-N′-[1-(2H-Tetrazol-5-Yl)Cyclopropyl]Urea]
3.17	CCOc1cc([C@@H](C)N(CCO[C@@H](C)c2ccccc2)C(=O)N[C@]2(C(=O)O)C[C@@H](OCC)C2)c(Cl)c(OCC)c1C(C)O (single isomer, unassigned) [Example 5-61]
